Where a chain is given by its changes, count along the chain named. Where two headings read alike, the source gives them in different places.
Tests used:
[1] = tested on: α1aAR F308 / F312 substituted receptors; conditions: cited from earlier work
[2] = molecular target: T1, human α1aAR WT (Homo sapiens, UniProt P35348); assay: [125I]HEAT saturation binding on membranes, WT high expressing clone; conditions: membranes from WT α1aAR high expressing clone, rat-1 fibroblasts, 1.77±0.24 pmol/mg protein
T1 construct: expressed in transfected cells
T1 sequence (P35348 1-466): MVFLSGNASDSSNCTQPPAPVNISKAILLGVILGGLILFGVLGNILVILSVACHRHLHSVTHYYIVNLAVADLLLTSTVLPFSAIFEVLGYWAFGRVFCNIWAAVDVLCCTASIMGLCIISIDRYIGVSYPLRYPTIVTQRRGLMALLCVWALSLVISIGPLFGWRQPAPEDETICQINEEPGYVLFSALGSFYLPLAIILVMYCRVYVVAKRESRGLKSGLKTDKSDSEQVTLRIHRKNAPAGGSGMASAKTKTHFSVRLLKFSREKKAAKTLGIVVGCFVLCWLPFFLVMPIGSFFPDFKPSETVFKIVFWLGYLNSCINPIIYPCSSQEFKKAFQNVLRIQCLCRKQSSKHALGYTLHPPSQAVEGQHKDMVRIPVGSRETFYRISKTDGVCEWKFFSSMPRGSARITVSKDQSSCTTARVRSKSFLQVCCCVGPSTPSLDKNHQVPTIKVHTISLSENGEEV
Protocol: (§1) Cell Culture and Transfection. Rat-1 fibroblasts were cultured in DMEM supplemented with 10% FBS at 37° C. Cells were transfected with either the WT (reference sequence with all major alleles, GenBank accession number L31774) or mutated α1aAR in pcDNA3 by calcium phosphate precipitation. For stable transfection, clones resistant to G418 (0.8 mg/ml) were isolated and tested for receptor expression. Two different expression levels were chosen for receptor functional investigation. Low receptor expression level was defined a priori as <0.5 pmol/mg total protein, while high-level expression was defined as >1.5 pmol/mg protein.
(§2) Membrane Preparation and Radioligand Binding. Rat-1 membrane preparation and ligand binding assay using the α1AR selective antagonist, [^125I]HEAT, were performed as previously described (Schwinn et al, J. Pharmacol. Exp. Ther. 272:134-142 (1995)).
Pharmacological Characterization. In order to examine whether these polymorphic α1aARs have altered ligand binding characteristics, saturation binding isotherms were first performed to determine the dissociation constant (Kd) for the antagonist [^125I]HEAT, followed by competition assays designed to determine binding affinities for a series of α1aAR agonists and antagonists.

[3] = molecular target: human α1aAR SNPs; assay: [125I]HEAT saturation binding on membranes, receptors containing each SNP; conditions: expression 1.53-2.37 pmol/mg
Protocol: In Vitro Site-Directed Mutagenesis in the aoclar. Site-directed mutagenesis was utilized to introduce mutations corresponding to each SNP in hemagglutinin-tagged human α1aAR previously placed in the expression vector pcDNA3 (Price et al, J. Biol. Chem. 277:9570-9579 (2002)). Mutagenesis was performed using the QuickChange™ Site-Directed Mutagenesis Kit (Stratagene) as recommended by the manufacture. All mutations were confirmed by DNA sequencing (Duke University DNA Analysis Facility).
as §1, §2
Pharmacological Characterization. […]

[4] = molecular target: T2, human α1aAR SNP V311I (Homo sapiens, UniProt P35348, V311I); assay: Competition binding vs [125I]HEAT, SNP V311I; conditions: high expressing clone
T2 construct: expressed in transfected cells
T2 sequence (P35348 1-466 V311I): T1 sequence (P35348 1-466) with V311I

[5] = tested on: α1aAR F163 (TM4) / F187 (TM5) mutants; conditions: Waugh et al 2000; cited from earlier work
[6] = molecular target: T1, human α1aAR WT; assay: NE-induced desensitization of IP response, WT; format: cell-based; conditions: 10 min 10 μM NE pretreatment, compared with unpretreated
Protocol: (§3) The extent of desensitization was expressed as percent of reduction of IP response in pretreated cells compared with the response in naive cells. n=3-6. […] High-expression clones. […] Low-expression clones. Measurement of Intracellular Inositol Phosphate (IP) Production. […] Measurement of intracellular IP production was performed under serum-free conditions. […] For all experiments, membranes were collected for receptor quantititation and cells were counted at the time of assay.

[7] = tested on: human α1aAR SNPs; assay: NE-induced desensitization of IP response, receptors with any SNP; format: cell-based; conditions: high or low expression level
Protocol: as §3

[8] = tested on: human α1aAR SNPs; assay: NE-stimulated IP production, transiently expressed polymorphic receptors; format: cell-based; conditions: any polymorphic receptor, transient expression 1.30-1.98 pmol/mg protein
Protocol: Effect of human α1aAR SNPs on IP signaling in transiently transfected rat-1 fibroblasts (receptor densities 1.30-1.98 pmol/mg protein). […] For each construct, IP assay, binding assay and cell number were measured in paralleled plates. […] Basal IP release.
Transient transfection was also used to express receptors for binding and IP experiments in order to verify consistent behavior using alternative methods of protein expression.
Measurement of Intracellular Inositol Phosphate (IP) Production. Rat-1 cells expressing either the WT or mutated α1aAR grown on 12-well plates were labeled with [^3H]inositol for 20-24 h with 2.5 μCi/ml in complete DMEM. Measurement of intracellular IP production was performed under serum-free conditions. […] For all experiments, membranes were collected for receptor quantititation and cells were counted at the time of assay.

[9] = tested on: human α1aAR SNPs; conditions: receptors containing any SNP, high expressing clones

Compound: COc1ccccc1N1CCN(CCCNc2c(C)c(=O)n(C)c(=O)n2C)CC1 [5-methylurapidil]
- affinity on substitution of F308 and F312 ([1]; Waugh et al 2001): decreased affinity

Compound: Cc1ccc(N(CC2=NCCN2)c2cccc(O)c2)cc1 [phentolamine]
- affinity on substitution of F308 and F312 ([1]; Waugh et al 2001): not

Compound: COc1cc2nc(N3CCN(C(=O)c4ccco4)CC3)nc(N)c2cc1OC [prazosin]
- affinity on substitution of F308 and F312 [1]: decreased affinity

Compound: O=C1c2ccccc2CCC1CNCCc1ccc(O)c(I)c1 (stereo not drawn) [[^125I]HEAT, ^125I-(2-β-(4-hydroxyphenyl)-ethylamineomethyl)-tetralone]
- Kd [2]: 0.0421 ± 0.0065 nM

Compound: COc1cccc(OC)c1OCCNCC1COc2ccccc2O1 (stereo not drawn) [WB4101]
- affinity on substitution of F308 and F312 ([1]; Waugh et al 2001): decreased affinity

Compound: O=C1c2ccccc2CCC1CNCCc1ccc(O)c([125I])c1 (stereo not drawn) [[^125I]HEAT, ^125I-(2-β-(4-hydroxyphenyl)-ethylamineomethyl)-tetralone]
- Kd values for [125I]HEAT compared with WT [3]: not significantly different from WT
- affinity on substitution of F308 and F312 ([1]; Waugh et al 2001): not

Compound: CNC[C@H](O)c1ccc(O)c(O)c1 [epinephrine, (−)-epinephrine]
- Ki increase vs WT (decrease in receptor affinity) [4]: ~3 fold
- decrease in affinity on mutation of F163 or F187 [5]: 10 fold

Compound: NC[C@H](O)c1ccc(O)c(O)c1 [NE, (−)-norepinephrine]
- lower IP production after NE pretreatment (desensitization) ([6]; high-expression level): 33.5±3.2%
- lower IP production after NE pretreatment (desensitization) ([6]; low-expression level): 31.0±3.1%
- agonist-induced desensitization, SNP receptors vs WT [7]: no difference in agonist-induced desensitization
- maximum IP response vs WT [8]: no significant change

Compound: COc1ccccc1N1CCN(CCN2C(=O)CC3(CCCC3)CC2=O)CC1 [BMY7378]
- affinity on substitution of F308 and F312 ([1]; Waugh et al 2001): decreased affinity

Compound: Cc1cc(C(C)(C)C)c(O)c(C)c1CC1=NCCN1 [oxymetazoline]
- change in affinity vs WT [9]: no change in the affinity

From US20040265846A1, “Adrenergic receptors” (DUKE UNIVERSITY, priority 2002, published 2004)
